Reference: US12582641B2, “Sulfur-containing compound based on glutarimide skeleton and application thereof” (SHANGHAITECH UNIVERSITY, priority 2019, dated 2026)

What was measured:
MM.1S cells = assay: Proliferation inhibition (IC50) in MM.1S cells, cell viability assay; settings: Homo sapiens, MM1.S, 72 h, read-out: IC50 (nM), proliferation inhibitory activity of MM.1S cells (half inhibitory concentration)
Description: MM.1S (B lymphoblast) was purchased from ATCC. Complete medium was RPMI1640 supplemented with 10% FBS and 1% Penicillin-Streptomycin. The cells used were identified as correct cells by STR cells, and were negative for mycoplasma through routine inspections.
IC50 values of the compounds of the present disclosure were measured using Cell Titer Blue, Cell Titer GLO, or WST reagent from Promega Company. Assay details are as follows: Cells were seeded in 100 μL RPMI1640 complete medium containing serum at a density of 15,000 cells/well. After 24 h, the inoculated cells were treated with diluted commercial inhibitor and the compounds of the present disclosure to be tested after serial dilution. After the cells were treated with the compounds of the present disclosure to be tested for 72 h, cell viability was determined after adding the cell viability detection kit listed above according to the reagent operating instructions. The negative control was DMSO, and the positive control was a commercial inhibitor, both of which were used to treat the cells through the same method as that of the compounds of the present disclosure. The growth inhibition of the compounds of the present disclosure on cells was plotted by Prism Graphpad software, and the IC50 values of the compounds of the present disclosure were calculated therefrom.
We tested the activities of the compounds of the present invention in MM.1S cell (which overexpressed IKZF1/3 and is highly sensitive to immunomodulatory drugs) through a dose-dependent manner. The cells were treated with the compounds of the present invention at 10 different successively decreasing concentrations (starting at the highest concentration of 10 μM; 5-fold serial dilutions) for 72 h, and then the cell viability determination was performed in accordance with CCK-8 reagent operating instructions. The experiment was repeated more than three times.

ALCL cell line SR = assay: Proliferation inhibition (IC50) in lymphoma cell line SR, cell viability assay; type: cell-based; settings: 72 h, SR cells, WST reagent
Excerpt: (§1) We tested the anti-proliferation activities of the compounds of the present invention in ALCL cell line SR and Mantle cell lymphoma Mino (which overexpressed IKZF1/3, but were not sensitive to immunomodulatory drugs) through a dose-dependent manner. […] The experiment was repeated more than three times.

[1] = system: Mantle cell lymphoma Mino; assay: Proliferation inhibition (IC50) in lymphoma cell line Mino, cell viability assay; type: cell-based; settings: Mino cells; for IC50: 72 h, WST reagent
Excerpt: as §1

O=C1CCC(N2Cc3c(SCc4ccc(CCNC56CC7CC(CC(C7)C5)C6)cc4)cccc3C2=O)C(=O)N1 (stereo not shown) [SIAIS287128, 3-(4-((4-(2-(adamantan-1-ylamino)ethyl)benzyl)thio)-1-oxoisoindolin-2-yl)piperidine-2,6-dione]
IC50 (MM.1S cells): 0.018 ± 0.005 nM
IC50 (ALCL cell line SR; Homo sapiens, SR): ~300 pM
IC50 (ALCL cell line SR): 297 pM
IC50 ([1]; Homo sapiens, MINO): ~290 pM
IC50 [1]: 289 pM
IC50 times lower than Pomalidomide ([1]; versus pomalidomide IC50 48 nM): 165 times

O=C1CCC(N2Cc3c(SCCCCCCCNC45CC6CC(CC(C6)C4)C5)cccc3C2=O)C(=O)N1 (stereo not shown) [SIAIS1220155, 3-(4-((7-((adamantan-1-yl)amino)heptyl)thio)-1-oxoisoindolin-2-yl)piperidine-2,6-dione]
IC50 (MM.1S cells): 0.02 nM
IC50 (ALCL cell line SR; Homo sapiens, SR): 7420 pM
IC50 ([1]; Homo sapiens, MINO): 776 pM

O=C1CCC(N2Cc3c(SCc4ccc(CN5CCCCC5)cc4)cccc3C2=O)C(=O)N1 (stereo not shown) [SIAIS1220165, 3-(1-oxo-4-((4-(piperidin-1-ylmethyl)benzyl)thio)isoindolin-2-yl)piperidine-2,6-dione]
IC50 (MM.1S cells): 0.09 nM
IC50 (ALCL cell line SR; Homo sapiens, SR): 1890 pM
IC50 ([1]; Homo sapiens, MINO): 5830 pM

O=C1CCC(N2Cc3c(SCc4ccc(CN5CCCCCCC5)cc4)cccc3C2=O)C(=O)N1 (stereo not shown) [SIAIS1227109, 3-(4-((4-(azocan-1-ylmethyl)benzyl)thio)-1-oxoisoindolin-2-yl)piperidine-2,6-dione]
IC50 (MM.1S cells): 0.03 ± 0.004 nM

CC1(C)CCN(Cc2ccc(CSc3cccc4c3CN(C3CCC(=O)NC3=O)C4=O)cc2)CC1 (stereo not shown) [SIAIS1227113, 3-(4-((4-((4,4-dimethylpiperidin-1-yl)methyl)benzyl)thio)-1-oxoisoindolin-2-yl)piperidine-2,6-dione]
IC50 (MM.1S cells): 0.03 ± 0.01 nM

O=C1CCC(N2Cc3c(SCc4ccc(CN5CCC6(CC5)CC6)cc4)cccc3C2=O)C(=O)N1 (stereo not shown) [SIAIS1227115, 3-(4-((4-((6-azaspiro[2.5]octan-6-yl)methyl)benzyl)thio)-1-oxoisoindolin-2-yl)piperidine-2,6-dione]
IC50 (MM.1S cells): 0.04 ± 0.01 nM

CC1CC(C)CN(Cc2ccc(CSc3cccc4c3CN(C3CCC(=O)NC3=O)C4=O)cc2)C1 (stereo not shown) [SIAIS1227117, 3-(4-((4-((3,5-dimethylpiperidin-1-yl)methyl)benzyl)thio)-1-oxoisoindolin-2-yl)piperidine-2,6-dione]
IC50 (MM.1S cells): 0.2 ± 0.08 nM

O=C1CCC(N2Cc3c(SCc4ccc(CN5CCC6(CCCCC6)CC5)cc4)cccc3C2=O)C(=O)N1 (stereo not shown) [SIAIS1227119, 3-(4-((4-((3-azaspiro[5.5]undecan-3-yl)methyl)benzyl)thio)-1-oxoisoindolin-2-yl)piperidine-2,6-dione]
IC50 (MM.1S cells): 0.2 nM

O=C1CCC(N2Cc3c(SCc4cccc(CN5CCCCC5)c4)cccc3C2=O)C(=O)N1 (stereo not shown) [SIAIS1227131, 3-(1-oxo-4-((3-(piperidin-1-ylmethyl)benzyl)thio)isoindolin-2-yl)piperidine-2,6-dione]
IC50 (MM.1S cells): 0.89 ± 0.22 nM

O=C1CCC(N2Cc3c(SCc4cccc(CNC5CCCCC5)c4)cccc3C2=O)C(=O)N1 (stereo not shown) [SIAIS1227133, 3-(4-((3-((cyclohexylamino)methyl)benzyl)thio)-1-oxoisoindolin-2-yl)piperidine-2,6-dione]
IC50 (MM.1S cells): 0.13 ± 0.07 nM

O=C1CCC(N2Cc3c(SCc4cccc(CNC56CC7CC(CC(C7)C5)C6)c4)cccc3C2=O)C(=O)N1 (stereo not shown) [SIAIS1227135, 3-(4-((3-(((adamantan-1-yl)amino)methyl)benzyl)thio)-1-oxoisoindolin-2-yl)piperidine-2,6-dione]
IC50 (MM.1S cells): 0.03 ± 0.01 nM

O=C1CCC(N2Cc3c(SCc4cccc(CN5CCOCC5)c4)cccc3C2=O)C(=O)N1 (stereo not shown) [SIAIS1227137, 3-(4-((3-(morpholinomethyl)benzyl)thio)-1-oxoisoindolin-2-yl)piperidine-2,6-dione]
IC50 (MM.1S cells): 1.04 ± 0.49 nM

O=C1CCC(N2Cc3c(SCc4cc(Br)c(CN5CCCCC5)cc4Br)cccc3C2=O)C(=O)N1 (stereo not shown) [SIAIS1227139, 3-(4-((2,5-dibromo-4-(piperidin-1-ylmethyl)benzyl)thio)-1-oxoisoindolin-2-yl)piperidine-2,6-dione]
IC50 (MM.1S cells): 1.04 ± 0.21 nM

O=C1CCC(N2Cc3c(SCc4cc(Br)c(CNC5CCCCC5)cc4Br)cccc3C2=O)C(=O)N1 (stereo not shown) [SIAIS1227141, 3-(4-((2,5-dibromo-4-((cyclohexylamino)methyl)benzyl)thio)-1-oxoisoindolin-2-yl)piperidine-2,6-dione]
IC50 (MM.1S cells): 4.98 ± 0.99 nM

O=C1CCC(N2Cc3c(SCc4cc(Br)c(CNC56CC7CC(CC(C7)C5)C6)cc4Br)cccc3C2=O)C(=O)N1 (stereo not shown) [SIAIS1227143, 3-(4-((4-(((adamantan-1-yl)amino)methyl)-2,5-dibromobenzyl)thio)-1-oxoisoindolin-2-yl)piperidine-2,6-dione]
IC50 (MM.1S cells): 0.11 ± 0.17 nM

O=C1CCC(N2Cc3c(SCc4ccc(CCN5CCCCCCC5)cc4)cccc3C2=O)C(=O)N1 (stereo not shown) [SIAIS1227159, 3-(4-((4-(2-(azocan-1-yl)ethyl)benzyl)thio)-1-oxoisoindolin-2-yl)piperidine-2,6-dione]
IC50 (MM.1S cells): 0.02 nM

O=C1CCC(N2Cc3c(SCc4ccc(CCN5CCC(F)(F)CC5)cc4)cccc3C2=O)C(=O)N1 (stereo not shown) [SIAIS1227161, 3-(4-((4-(2-(4,4-difluoropiperidin-1-yl)ethyl)benzyl)thio)-1-oxoisoindolin-2-yl)piperidine-2,6-dione]
IC50 (MM.1S cells): 0.025 nM

O=C1CCC(N2Cc3c(SCc4ccc(CCN5CCC6(CC5)CC6)cc4)cccc3C2=O)C(=O)N1 (stereo not shown) [SIAIS1227163, 3-(4-((4-(2-(6-azaspiro[2.5]octan-6-yl)ethyl)benzyl)thio)-1-oxoisoindolin-2-yl)piperidine-2,6-dione]
IC50 (MM.1S cells): 0.021 nM

CC1CC(C)CN(CCc2ccc(CSc3cccc4c3CN(C3CCC(=O)NC3=O)C4=O)cc2)C1 (stereo not shown) [SIAIS1227165, 3-(4-((4-(2-(3,5-dimethylpiperidin-1-yl)ethyl)benzyl)thio)-1-oxoisoindolin-2-yl)piperidine-2,6-dione]
IC50 (MM.1S cells): 0.023 nM

O=C1CCC(N2Cc3c(SCc4ccc(CN5CCC(F)(F)CC5)cc4)cccc3C2=O)C(=O)N1 (stereo not shown) [SIAIS1227167, 3-(4-((4-((4,4-difluoropiperidin-1-yl)methyl)benzyl)thio)-1-oxoisoindolin-2-yl)piperidine-2,6-dione]
IC50 (MM.1S cells): 0.064 nM

CN1CCN(Cc2ccc(CSc3cccc4c3CN(C3CCC(=O)NC3=O)C4=O)cc2)CC1 (stereo not shown) [SIAIS1227169, 3-(4-((4-((4-methylpiperazin-1-yl)methyl)benzyl)thio)-1-oxoisoindolin-2-yl)piperidine-2,6-dione]
IC50 (MM.1S cells): 0.12 nM

O=C1CCC(N2Cc3c(SCc4ccc(CN5C[C@H]6CCCC[C@H]6C5)cc4)cccc3C2=O)C(=O)N1 (stereo partly drawn) [SIAIS1227171, 3-(4-((4-(((3aR,7aS)-octahydro-2H-isoindol-2-yl)methyl)benzyl)thio)-1-oxoisoindolin-2-yl)piperidine-2,6-dione]
IC50 (MM.1S cells): 0.021 nM

C[C@@H](NCc1ccc(CSc2cccc3c2CN(C2CCC(=O)NC2=O)C3=O)cc1)C1CC1 (stereo partly drawn) [SIAIS1227173, 3-(4-((4-((((R)-1-cyclopropylethyl)amino)methyl)benzyl)thio)-1-oxoisoindolin-2-yl)piperidine-2,6-dione]
IC50 (MM.1S cells): 0.095 nM

O=C1CCC(N2Cc3c(SCc4ccc(CN5CCCCC5)cc4F)cccc3C2=O)C(=O)N1 (stereo not shown) [SIAIS1227175, 3-(4-((2-fluoro-4-(piperidin-1-ylmethyl)benzyl)thio)-1-oxoisoindolin-2-yl)piperidine-2,6-dione]
IC50 (MM.1S cells): 0.073 nM

O=C1CCC(N2Cc3c(SCc4ccc(CNC5CCCCC5)cc4F)cccc3C2=O)C(=O)N1 (stereo not shown) [SIAIS1227177, 3-(4-((4-((cyclohexylamino)methyl)-2-fluorobenzyl)thio)-1-oxoisoindolin-2-yl)piperidine-2,6-dione]
IC50 (MM.1S cells): 0.097 nM

O=C1CCC(N2Cc3c(SCc4ccc(CNC56CC7CC(CC(C7)C5)C6)cc4F)cccc3C2=O)C(=O)N1 (stereo not shown) [SIAIS1227179, 3-(4-((4-(((adamantan-1-yl)amino)methyl)-2-fluorobenzyl)thio)-1-oxoisoindolin-2-yl)piperidine-2,6-dione]
IC50 (MM.1S cells): 0.029 nM

O=C1CCC(N2Cc3c(SCc4ccc(CN5CCOCC5)cc4F)cccc3C2=O)C(=O)N1 (stereo not shown) [SIAIS1227181, 3-(4-((2-fluoro-4-(morpholinomethyl)benzyl)thio)-1-oxoisoindolin-2-yl)piperidine-2,6-dione]
IC50 (MM.1S cells): 0.113 nM

O=C1CCC(N2Cc3c(SCc4ccc(CNC(C5CC5)C5CC5)cc4)cccc3C2=O)C(=O)N1 (stereo not shown) [SIAIS1227183, 3-(4-((4-(((dicyclopropylmethyl)amino)methyl)benzyl)thio)-1-oxoisoindolin-2-yl)piperidine-2,6-dione]
IC50 (MM.1S cells): 0.039 nM

O=C1CCC(N2Cc3c(SCc4ccc(CNC56CC7CC(CC5C7)C6)cc4)cccc3C2=O)C(=O)N1 (stereo not shown) [SIAIS1228019, 3-(4-((4-(((hexahydro-2,5-methanopentalen-3a(1H)-yl)amino)methyl)benzyl)thio)-1-oxoisoindolin-2-yl)piperidine-2,6-dione]
IC50 (MM.1S cells): 0.051 nM

O=C1CCC(N2Cc3c(SCCCCCCCNC45CC6CC(CC4C6)C5)cccc3C2=O)C(=O)N1 (stereo not shown) [SIAIS1228055, 3-(4-((7-((hexahydro-2,5-methanopentalen-3a(1H)-yl)amino)heptyl)thio)-1-oxoisoindolin-2-yl)piperidine-2,6-dione]
IC50 (MM.1S cells): 0.028 nM

O=C1CCC(N2Cc3c(SCCCCCCCN[C@H]4C[C@H]5CC[C@@H]4C5)cccc3C2=O)C(=O)N1 (stereo partly drawn) [SIAIS1228059, 3-(4-((7-(((1R,2S,4S)-bicyclo[2.2.1]heptan-2-yl)amino)heptyl)thio)-1-oxoisoindolin-2-yl)piperidine-2,6-dione]
IC50 (MM.1S cells): 0.037 nM

Nc1cccc2c1C(=O)N(C1CCC(=O)NC1=O)C2=O (stereo not shown) [pomalidomide, reference compound]
IC50 (MM.1S cells): 9.4 ± 1.3 nM
IC50 ([1]; Homo sapiens, MINO): 48000 pM
IC50 [1]: 48000 pM
